Source: PMC8671332 (Journal of cellular biochemistry, 2021)

Legend:
[1] = tested on: plasma membrane Ca2+-ATPase (PMCA; isoform not resolved); assay type: cell-based
Na+/K+-ATPase (α1β1) = Na+/K+-ATPase (α1β1) (Sus scrofa, UniProt P05024); assay: biochemical

SMILES	% inhibition at 100 nM [1]	IC50 (Na+/K+-ATPase (α1β1))
C[C@@H]1O[C@@H](O[C@H]2CC[C@@]3(C)[C@H](CC[C@@H]4[C@@H]3CC[C@]3(C)[C@@H](C5=CC(=O)OC5)CC[C@]43O)C2)CC[C@H]1O [compound 2, digitoxigenin-α-L-amiceto-pyranoside]	~ 25% inhibition at 100	41 ± 3 nM
C[C@@H]1O[C@@H](O[C@H]2CC[C@@]3(C)[C@H](CC[C@@H]4[C@@H]3CC[C@]3(C)[C@@H](C5=CC(=O)OC5)CC[C@]43O)C2)[C@H](O)[C@H](O)[C@H]1O [compound 1, digitoxigenin-α-L-rhamno-pyranoside]		12 ± 1 nM
